Results from PubChem BioAssay (NCI).
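GI50 is the concentration that inhibits growth by half. TGI: concentration producing complete growth inhibition.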

How the values were obtained:
Assay in all cases: DTP human tumour cell line panel, 384-well format
HCT-116 colon = tested on: HCT-116 colon
NCI-H23 lung = tested on: NCI-H23 lung
OVCAR-8 ovarian = tested on: OVCAR-8 ovarian
A498 renal = tested on: A498 renal
MDA-MB-231 breast = tested on: MDA-MB-231 breast
SF-539 CNS = tested on: SF-539 CNS
SF-295 CNS = tested on: SF-295 CNS
UACC-257 melanoma = tested on: UACC-257 melanoma
SR leukemia = tested on: SR leukemia
SNB-75 CNS = tested on: SNB-75 CNS
DU-145 prostate = tested on: DU-145 prostate
BT-549 breast = tested on: BT-549 breast
LOX IMVI melanoma = tested on: LOX IMVI melanoma

## COC(=O)c1ccc2c(C(=Nc3ccc(N(C)C(=O)CN4CCN(C)CC4)cc3)c3ccccc3)c(O)[nH]c2c1
HCT-116 colon
  GI50: 1400 nM
  TGI: 2720 nM
NCI-H23 lung
  GI50: 1790 nM
  TGI: 5170 nM
OVCAR-8 ovarian
  GI50: 1580 nM
  TGI: 2970 nM
A498 renal
  GI50: 1640 nM
  TGI: 3070 nM
MDA-MB-231 breast
  GI50: 1720 nM
  TGI: 3130 nM
SF-539 CNS
  GI50: 545 nM
  TGI: 1910 nM
SF-295 CNS
  GI50: 1830 nM
  TGI: 3250 nM
UACC-257 melanoma
  GI50: 1330 nM
  TGI: 2610 nM
SR leukemia
  GI50: 734 nM
  TGI: 2020 nM
SNB-75 CNS
  GI50: 468 nM
  TGI: 1510 nM
DU-145 prostate
  GI50: 1790 nM
  TGI: 3340 nM
BT-549 breast
  GI50: 1490 nM
  TGI: 2830 nM
LOX IMVI melanoma
  GI50: 2230 nM
  TGI: 3690 nM
